Patent publication US20240116933A1, “INDAZOLE AND PYRAZOLOPYRIDINE COMPOUNDS AS INHIBITORS OF NLRP3 INFLAMMASOME” (BioAge Labs, Inc., priority 2022, published 2024)

Each compound was assayed against T1, NLRP3 inflammasome (Homo sapiens, UniProt Q96P20) (assay: THP-1 Cell-Based NLRP3 Activation Assay). Settings: THP-1 cells, PMA, 100 ng/mL LPS 3 hrs, 30 min pre-incubation with test compound, 10 μM nigericin 1 hr.
T1 construct: endogenous in cells; host or cells: THP-1 cells (PMA-differentiated, LPS-primed, nigericin-stimulated)
T1 sequence (Q96P20 whole entry): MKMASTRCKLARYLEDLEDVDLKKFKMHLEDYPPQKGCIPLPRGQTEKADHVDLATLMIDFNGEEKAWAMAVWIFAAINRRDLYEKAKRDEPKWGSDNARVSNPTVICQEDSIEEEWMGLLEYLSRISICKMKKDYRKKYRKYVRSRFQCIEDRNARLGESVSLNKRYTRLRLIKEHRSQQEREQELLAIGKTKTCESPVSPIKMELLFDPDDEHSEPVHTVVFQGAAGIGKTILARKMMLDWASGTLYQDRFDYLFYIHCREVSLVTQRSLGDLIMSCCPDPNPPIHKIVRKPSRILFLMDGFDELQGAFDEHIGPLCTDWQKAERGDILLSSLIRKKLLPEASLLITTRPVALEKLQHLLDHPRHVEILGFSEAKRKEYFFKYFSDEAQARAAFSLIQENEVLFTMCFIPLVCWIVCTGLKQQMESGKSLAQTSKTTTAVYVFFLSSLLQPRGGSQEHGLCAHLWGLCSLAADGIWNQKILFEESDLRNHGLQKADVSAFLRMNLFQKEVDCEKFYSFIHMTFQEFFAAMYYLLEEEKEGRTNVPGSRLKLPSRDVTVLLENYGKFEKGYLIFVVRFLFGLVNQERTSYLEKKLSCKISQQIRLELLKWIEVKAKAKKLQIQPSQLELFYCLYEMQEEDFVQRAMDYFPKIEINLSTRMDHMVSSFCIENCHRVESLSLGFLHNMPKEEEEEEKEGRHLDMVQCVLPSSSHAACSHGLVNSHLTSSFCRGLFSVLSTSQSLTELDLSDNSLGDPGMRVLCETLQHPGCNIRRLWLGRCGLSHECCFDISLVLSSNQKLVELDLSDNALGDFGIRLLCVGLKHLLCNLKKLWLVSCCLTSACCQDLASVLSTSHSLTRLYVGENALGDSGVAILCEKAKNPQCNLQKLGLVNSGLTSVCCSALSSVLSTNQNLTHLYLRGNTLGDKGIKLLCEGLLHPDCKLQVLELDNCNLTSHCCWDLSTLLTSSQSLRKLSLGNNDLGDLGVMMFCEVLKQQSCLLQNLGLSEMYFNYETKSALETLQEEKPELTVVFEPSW
Description: THP-1 cells are cultured in complete media (CM) until they reach logarithmic growth and achieve a viability >90%. CM is composed of RPMI-1640 (+Glutamax)/10% fetal bovine serum/55 μM β-mercaptoethanol/pen/strep. Cells are spun down and resuspended to 1,000,000 cells/mL in CM containing either 20 nM or 500 nM PMA. 150,000 cells […] are then added to each well of a 96-well TC plate and incubated for either 24 hr or 3 hr, respectively, in a standard cell culture incubator (37° C.; 5% CO2). After this incubation, the plate is tilted and media carefully removed. 200 μL of CM containing 100 ng/mL LPS is then added to the wells and the cells incubated an additional 3 hrs. The media is again removed and replaced with Opti-Mem medium containing pre-determined dilutions of test compounds in replicate wells. After a 30 min pre-incubation with test compound, 10 μM nigericin (final concentration) in Opti-Mem medium with the corresponding concentration of compound is added to the wells for an additional 1 hr. Positive control wells contain 10 μM nigericin in Opti-Mem in the absence of test compound, while negative control wells contain Opti-Mem only. […] Once supernatants are removed, the relative viability of adherent cells in the 96-well TC plate are determined using a CellTiter-Glo® luminescent cell viability assay (Promega).

`CCOc1cc(C(=O)N(C)Cc2c(C)nc(CF)c3cn[nH]c23)ccc1-c1cccc(F)c1` [Compound 173] and `CCOc1cc(C(=O)N(C)Cc2cnc(CO)c3cn[nH]c23)cc(Cl)c1-c1cccc(F)c1` [Compound 175] cannot be ordered by IC50: less than 1 µM for the first, less than 10 µM for the second.

`CCOc1cc(C(=O)N(CC)Cc2cnc(C(C)O)c3cn[nH]c23)cc(F)c1-c1cccc(F)c1` (stereo not shown) [Compound 174] and `CCN(Cc1cnc(CO)c2cn[nH]c12)C(=O)c1cc(F)c(-c2cccc(F)c2)c(OC2CC2)c1` [Compound 180] cannot be ordered by IC50: less than 1 µM for the first, less than 1 µM for the second.

`CCOc1cc(C(=O)N(CC)Cc2cnc(C(C)O)c3cn[nH]c23)ccc1-c1cccc(Cl)c1` (stereo not shown) [Compound 176] and `CCOc1cc(C(=O)N(CC)Cc2cnc(CO)c3cn[nH]c23)ccc1-c1cccc(Cl)c1` [Compound 177] cannot be ordered by IC50: less than 1 µM for the first, less than 1 µM for the second.

`CCOc1cc(C(=O)N(C)Cc2cc(O)cc3cn[nH]c23)cc(F)c1-c1cccc(Cl)c1` [Compound 178] and `CCN(Cc1cnc(CO)c2cn[nH]c12)C(=O)c1ccc(-c2cccc(Cl)c2)c(OC2CC2)c1` [Compound 182] cannot be ordered by IC50: less than 1 µM for the first, less than 1 µM for the second.

`CCN(Cc1cnc(C(C)O)c2cn[nH]c12)C(=O)c1ccc(-c2cccc(F)c2)c(OC2CC2)c1` (stereo not shown) [Compound 179] and `CN(Cc1cnc(CF)c2cn[nH]c12)C(=O)c1cc(F)c(-c2cc(F)cs2)c(OC2CC2)c1` [Compound 181] cannot be ordered by IC50: less than 1 µM for the first, less than 1 µM for the second.
